From patent US7514452B2, “2-furancarboxylic acid hydrazides and pharmaceutical compositions containing the same” (Dainippon Pharmaceutical Co., Ltd, priority 2002, dated 2009) come the findings set out here.

The target of data set [1] is glucagon receptor (Mus musculus, UniProt Q61606). In words: Experiment for glucagon binding inhibition, mouse hepatic membrane (125I-glucagon). The conditions noted are these: male ddY mouse hepatic membrane, 125I-glucagon 50 pM, 25° C. for 30 minutes; read-out: Glucagon binding inhibitory activity IC50 (nM) Mouse. On the procedure:
(§1) The preparation of membrane from mouse and rat livers was carried out according to the method described in Bioorg. Med. Chem. Lett. 1992, 12, 915-918 in this experiment and ^125I-glucagon binding activity was measured with these membranes as glucagon receptor's samples. Livers were removed from male SD rats (about 250 g body weight per rat) and male ddY mice (about 30 g body weight per mouse). […] The homogenate was centrifuged for 15 minutes at 30,000×g. […] The precipitaion thus obtained was used as a hepatic membrane sample. […] The mixture was incubated at 25° C. for 30 minutes. […] The filter was washed 3 times with 50 mM Tris-HCl buffer (pH 7.2), and the radioactivity of the filter was measured by a γ counter (ARC-360, Aloka Co., Ltd.). […] Each experiment was carried out in duplicate. […] The concentration at 50% inhibition of binding (IC50) was calculated using a pseudo Hill plot.

The target of data set [2] is glucagon receptor (Rattus norvegicus, UniProt P30082). In words: Experiment for glucagon binding inhibition, rat hepatic membrane (125I-glucagon). The conditions noted are these: male SD rat hepatic membrane, 125I-glucagon 50 pM, 25° C. for 30 minutes; read-out: Glucagon binding inhibitory activity IC50 (nM) Rat. On the procedure: as §1
glucagon receptor (Rattus norvegicus, UniProt P30082), sequence (P30082 27-485): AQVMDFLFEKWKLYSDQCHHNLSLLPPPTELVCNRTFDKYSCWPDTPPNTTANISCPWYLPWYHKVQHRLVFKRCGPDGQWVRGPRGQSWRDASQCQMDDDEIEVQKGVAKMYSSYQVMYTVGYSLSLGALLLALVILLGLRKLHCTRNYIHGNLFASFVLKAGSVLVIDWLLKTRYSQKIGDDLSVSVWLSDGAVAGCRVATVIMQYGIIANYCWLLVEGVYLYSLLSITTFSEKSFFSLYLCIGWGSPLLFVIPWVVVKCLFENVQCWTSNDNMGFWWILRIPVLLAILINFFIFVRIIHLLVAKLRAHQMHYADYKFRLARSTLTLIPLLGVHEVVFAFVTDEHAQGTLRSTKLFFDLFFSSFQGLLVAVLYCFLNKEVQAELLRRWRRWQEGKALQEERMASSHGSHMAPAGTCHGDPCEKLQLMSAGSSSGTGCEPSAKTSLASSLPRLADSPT

glucagon receptor (Mus musculus, UniProt Q61606), sequence (Q61606 27-485): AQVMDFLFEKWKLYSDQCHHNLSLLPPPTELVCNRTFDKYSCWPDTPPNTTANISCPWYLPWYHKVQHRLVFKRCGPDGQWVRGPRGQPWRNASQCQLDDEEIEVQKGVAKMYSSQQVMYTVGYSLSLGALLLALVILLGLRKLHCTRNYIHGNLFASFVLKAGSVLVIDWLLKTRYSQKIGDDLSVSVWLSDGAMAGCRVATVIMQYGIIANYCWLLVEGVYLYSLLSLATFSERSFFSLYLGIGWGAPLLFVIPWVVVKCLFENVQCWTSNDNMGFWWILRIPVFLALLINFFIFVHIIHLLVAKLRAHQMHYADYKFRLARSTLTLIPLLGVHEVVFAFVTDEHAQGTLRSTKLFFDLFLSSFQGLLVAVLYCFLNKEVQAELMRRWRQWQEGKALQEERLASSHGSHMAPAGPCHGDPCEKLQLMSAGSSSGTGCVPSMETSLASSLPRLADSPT

Molecule `Cc1cc(C)c(C)c(COc2ccc(-c3ccoc3C(=O)NNC(=O)c3ccc(O)c([N+](=O)[O-])c3)cc2)c1C` [Example 113, 3-[4-(2,3,5,6-Tetramethylbenzyloxy)phenyl]-2-furancarboxylic acid 2-(4-hydroxy-3-nitrobenzoyl)hydrazide] came in with a melting point of 203 to 204 °C. For the same molecule, the IC50 in data set [1] came out at 43 nM. The IC50 in data set [2] worked out at 28 nM.
`CC=CCOc1cccc(-c2ccoc2C(=O)NNC(=O)c2ccc(O)c([N+](=O)[O-])c2)c1` [Example 198, 3-[3-(2-Butenyloxy)phenyl]-2-furancarboxylic acid 2-(4-hydroxy-3-nitrobenzoyl)hydrazide] returned a melting point of 113 to 115 °C. For the same molecule, in data set [1], the IC50 was found to be 20 nM. The IC50 in data set [2] stood at 75 nM.
Turning to `O=C(NNC(=O)c1occc1-c1cccc(Cc2ccccc2)c1)c1ccc(O)c([N+](=O)[O-])c1` [Example 189, 3-(3-Benzylphenyl)-2-furancarboxylic acid 2-(4-hydroxy-3-nitrobenzoyl)hydrazide], the melting point lay within 160 to 162 °C. Further, the IC50 in data set [1] worked out at 3 nM. For the same molecule, the IC50 in data set [2] was found to be 5.5 nM.
In turn, `CCCCOc1cccc(-c2ccoc2C(=O)NNC(=O)c2ccc(O)c(C#N)c2)c1` [Example 107, 3-(3-Butoxyphenyl)-2-furancarboxylic acid 2-(3-cyano-4-hydroxybenzoyl)hydrazide] returned a melting point of 186 to 188 °C. Moreover, the IC50 in data set [1] came out at 360 nM. For the same molecule, in data set [2], the IC50 amounted to 140 nM.
In turn, `CC(C)c1cccc(-c2ccoc2C(=O)NNC(=O)c2ccc(O)c([N+](=O)[O-])c2)c1` [Example 152, 3-(3-Isopropylphenyl)-2-furancarboxylic acid 2-(4-hydroxy-3-nitrobenzoyl)hydrazide] came in with a melting point of 182 to 183 °C. In data set [1], the IC50 was 250 nM. Also, the IC50 in data set [2] was 120 nM.
The corresponding values for `O=C(NNC(=O)c1oc(Br)cc1-c1ccccc1)c1ccc(O)c([N+](=O)[O-])c1` [Example 222, 5-bromo-3-phenyl-2-furancarboxylic acid 2-(4-hydroxy-3-nitrobenzoyl)hydrazide] are 174 to 176 °C, 42 nM and 25 nM.
`Cc1ccc(-c2ccoc2C(=O)NNC(=O)c2ccc(O)c([N+](=O)[O-])c2)cc1` [Example 146, 3-(4-Methylphenyl)-2-furancarboxylic acid 2-(4-hydroxy-3-nitrobenzoyl)hydrazide] displayed a melting point of 180 to 182 °C. Moreover, in data set [1], the IC50 was 38 nM. Besides, the IC50 in data set [2] amounted to 27 nM.
For `COc1ccc(Cc2cccc(-c3ccoc3C(=O)NNC(=O)c3ccc(O)c([N+](=O)[O-])c3)c2)cc1` [Example 234] the same measures were 102 to 104 °C, 56 nM and 39 nM.
`C=C(C)COc1cccc(-c2ccoc2C(=O)NNC(=O)c2ccc(O)c([N+](=O)[O-])c2)c1` [Example 197, 3-[3-(2-Methyl-2-propenyloxy)phenyl]-2-furancarboxylic acid 2-(4-hydroxy-3-nitrobenzoyl)hydrazide] showed a melting point of 127 to 129 °C. The 50% inhibitory concentration (IC50) in data set [1] is 56 nM. Also, the IC50 in data set [2] was determined as 37 nM.
Molecule `Cc1ccc(C)c(COc2cccc(-c3ccoc3C(=O)NNC(=O)c3ccc(O)c([N+](=O)[O-])c3)c2)c1` [Example 127, 3-[3-(2,5-Dimethylbenzyloxy)phenyl]-2-furancarboxylic acid 2-(4-hydroxy-3-nitrobenzoyl)hydrazide] came in with a melting point of 131 to 132 °C. Also, the IC50 in data set [1] worked out at 7.8 nM. In data set [2], the IC50 came to 8.6 nM.
As to `CC(C)c1ccc(-c2ccoc2C(=O)NNC(=O)c2ccc(O)c([N+](=O)[O-])c2)cc1` [Example 153, 3-(4-Isopropylphenyl)-2-furancarboxylic acid 2-(4-hydroxy-3-nitrobenzoyl)hydrazide], the melting point is 194 to 196 °C. Also, the IC50 in data set [1] was found to be 18 nM. Also, the IC50 in data set [2] was 24 nM.
With `Cc1ccc(COc2cccc(-c3ccoc3C(=O)NNC(=O)c3ccc(O)c([N+](=O)[O-])c3)c2)c(C)c1` [Example 128, 3-[3-(2,4-Dimethylbenzyloxy)phenyl]-2-furancarboxylic acid 2-(4-hydroxy-3-nitrobenzoyl)hydrazide], the melting point is 172 to 173 °C. The concentration for half-maximal inhibition (IC50) in data set [1] is 2.8 nM. The IC50 in data set [2] amounted to 3.4 nM.
In the case of `Cc1cccc(Cc2cccc(-c3ccoc3C(=O)NNC(=O)c3ccc(O)c([N+](=O)[O-])c3)c2)c1` [Example 235], the melting point lay within 149 to 151 °C. For the same molecule, in data set [1], the IC50 is 18 nM. In addition, the half-maximal inhibitory concentration (IC50) in data set [2] stood at 49 nM.
`O=C(NNC(=O)c1occc1-c1ccc2[nH]ccc2c1)c1ccc(O)c([N+](=O)[O-])c1` [Example 207] registered a melting point of 129 to 131 °C. Further, in data set [1], the IC50 came out at 9.5 nM. In addition, the IC50 in data set [2] was 8 nM.
As for `CCOc1ccccc1Cc1cccc(-c2ccoc2C(=O)NNC(=O)c2ccc(O)c([N+](=O)[O-])c2)c1` [Example 226], the melting point lay in the range of 87 to 89 °C. Besides, the half-maximal inhibitory concentration (IC50) in data set [1] is 31 nM. For the same molecule, the IC50 in data set [2] came to 21 nM.
In turn, `CCCCCc1ccc(-c2ccoc2C(=O)NNC(=O)c2ccc(O)c([N+](=O)[O-])c2)cc1` [Example 162, 3-(4-Pentylphenyl)-2-furancarboxylic acid 2-(4-hydroxy-3-nitrobenzoyl)hydrazide] displayed a melting point of 163 to 165 °C. Besides, the IC50 in data set [1] amounted to 8.6 nM. Besides, in data set [2], the IC50 is 9.6 nM.
The corresponding values for `O=C(NNC(=O)c1occc1-c1ccc2ccccc2c1)c1ccc(O)c([N+](=O)[O-])c1` [Example 217] are 135 to 139 °C, 37 nM and 60 nM.
In turn, `CC(C)CCOc1cccc(-c2ccoc2C(=O)NNC(=O)c2ccc(O)c([N+](=O)[O-])c2)c1` [Example 180, 3-(3-Isopentyloxyphenyl)-2-furancarboxylic acid 2-(4-hydroxy-3-nitrobenzoyl)hydrazide] registered a melting point of 122 to 124 °C. In data set [1], the IC50 stood at 46 nM. For the same molecule, the IC50 in data set [2] is 84 nM.
In turn, `CCCCCCc1ccc(-c2ccoc2C(=O)NNC(=O)c2ccc(O)c([N+](=O)[O-])c2)cc1` [Example 158, 3-(4-Hexylphenyl)-2-furancarboxylic acid 2-(4-hydroxy-3-nitrobenzoyl)hydrazide] returned a melting point of 144 to 146 °C. Besides, the IC50 in data set [1] is 7.1 nM. Also, in data set [2], the IC50 was 5.9 nM.
Turning to `CCCCCOc1ccc(-c2ccoc2C(=O)NNC(=O)c2ccc(O)c(F)c2)cc1` [Example 243], the melting point is 103 to 106 °C. For the same molecule, the IC50 in data set [1] is 290 nM. The IC50 in data set [2] is 380 nM.
`Cc1ccc(COc2cccc(-c3ccoc3C(=O)NNC(=O)c3ccc(O)c([N+](=O)[O-])c3)c2)cc1` [Example 126, 3-[3-(4-Methylbenzyloxy)phenyl]-2-furancarboxylic acid 2-(4-hydroxy-3-nitrobenzoyl)hydrazide] returned a melting point of 159 to 161 °C. Further, in data set [1], the IC50 was 15 nM. For the same molecule, the IC50 in data set [2] is 14 nM.
`CCCCOc1ccc(-c2ccoc2C(=O)NNC(=O)c2ccc(O)c([N+](=O)[O-])c2)cc1` [Example 161] showed a melting point of 155 to 156 °C. In addition, in data set [1], the IC50 came out at 140 nM. Besides, the IC50 in data set [2] turned out to be 100 nM.
`O=C(NNC(=O)c1occc1-c1ccc(Cc2ccccc2)cc1)c1ccc(O)c([N+](=O)[O-])c1` [Example 210, 3-(4-benzylphenyl)-2-furancarboxylic acid 2-(4-hydroxy-3-nitrobenzoyl)hydrazide]: the melting point was 154 to 157 °C. For the same molecule, the IC50 in data set [1] was determined as 7.9 nM. In data set [2], the IC50 was found to be 3.9 nM.
The molecule `Cc1ccccc1COc1cccc(-c2ccoc2C(=O)NNC(=O)c2ccc(O)c([N+](=O)[O-])c2)c1` [Example 119, 3-[3-(2-methylbenzyloxy)phenyl]-2-furancarboxylic acid 2-(4-hydroxy-3-nitrobenzoyl)hydrazide] displayed a melting point of 114 to 115 °C. For the same molecule, in data set [1], the IC50 stood at 9.6 nM. Besides, in data set [2], the IC50 was 16 nM.
Regarding `CCCCCOc1cccc(-c2ccoc2C(=O)NNC(=O)c2ccc(O)c([N+](=O)[O-])c2)c1` [Example 182, 3-(3-Pentyloxyphenyl)-2-furancarboxylic acid 2-(4-hydroxy-3-nitrobenzoyl)hydrazide], the melting point was in the range of 96 to 99 °C. The IC50 in data set [1] came out at 50 nM. Moreover, in data set [2], the IC50 worked out at 49 nM.
Molecule `O=C(NNC(=O)c1occc1-c1cccc(-c2ccccc2)c1)c1ccc(O)c([N+](=O)[O-])c1` [Example 218] showed a melting point of 143 to 147 °C. For the same molecule, the IC50 in data set [1] amounted to 56 nM. In data set [2], the IC50 is 95 nM.
For the molecule `Cc1ccc(-c2ccoc2C(=O)NNC(=O)c2ccc(O)c(C(F)(F)F)c2)cc1` [Example 240], the melting point lay within 120 to 123 °C. Also, the IC50 in data set [1] amounted to 180 nM. Besides, in data set [2], the IC50 is 300 nM.
As for `Cc1ccc(-c2ccoc2C(=O)NNC(=O)c2ccc(O)c([N+](=O)[O-])c2)cc1C` [Example 150, 3-(3,4-Dimethylphenyl)-2-furancarboxylic acid 2-(4-hydroxy-3-nitrobenzoyl)hydrazide], the melting point was in the range of 127 to 129 °C. Moreover, the IC50 in data set [1] stood at 73 nM. For the same molecule, the IC50 in data set [2] is 90 nM.
